Among the test systems are A498; A549; ACHN; DU-145; HCT-116; HL-60; HOP-62; M14; MDA-MB-435; MDA-N; Malme-3M; NCI/ADR-RES; OVCAR-8; RPMI-8226; RXF 393; SNB-75; T47D; U-251; UACC-257; UO-31.
Common to all, as to assay: NCI tumour cell line growth inhibition, 48 h

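1) Cells in 96-well plates. 2) Compound, 48 h, 5 concentrations. 3) Linear interpolation between surrounding doses. 4) Unreached endpoint = highest concentration. GI50 marks 50% less growth.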 Activity calls are given as the source filed them. Rule as the data show it: active = GI50 up to about 1.1 µM and inactive = higher.

For the molecule `CCCOc1cc2c(cc1O)CC[C@@H]1[C@@H]2CC[C@]2(C)[C@@H](O)CC[C@@H]12`, the GI50 in the test with A498 is 5.37 µM (inactive); in the test with A549 it was 2.99 µM (inactive); in the test with ACHN it was 5.2 µM (inactive); in the test with DU-145 it was 3.27 µM (inactive); with HCT-116, 1.64 µM (inactive); in the test on HL-60 it was 0.637 µM (active). For the same molecule, the GI50 with HOP-62 was 2.21 µM (inactive); in the test with M14 it was 1.8 µM (inactive); in the test with MDA-MB-435, 0.284 µM (active); in the test with MDA-N it was 0.22 µM (active); with Malme-3M, 6.82 µM (inactive); in the test on NCI/ADR-RES, 1.17 µM (inactive). Also, the GI50 is 4.98 µM (inactive) with OVCAR-8; 1.83 µM (inactive) with RPMI-8226; 2.25 µM (inactive) with RXF 393; 2.36 µM (inactive) with SNB-75; 3.19 µM (inactive) with T47D; 1.87 µM (inactive) in the test with U-251. Further, the figures for the GI50 in the test on UACC-257 and with UO-31 were 5.04 µM (inactive) and 4.95 µM (inactive), respectively.

Consider `COC(=O)/C(C#N)=C(/NCc1ccccc1)Nc1ccccc1`, for which the GI50 in the test on A498 was > 100 µM (inactive); with A549, 45.1 µM (inactive); in the test with ACHN, > 100 µM (inactive); with DU-145, > 100 µM (inactive); in the test with HCT-116, 63 µM (inactive); with HL-60, 27.8 µM (inactive). In addition, the GI50 in the test with HOP-62 was > 100 µM (inactive); in the test with M14, 42.4 µM (inactive); in the test on MDA-MB-435, > 100 µM (inactive); with MDA-N, 46.9 µM (inactive); in the test with Malme-3M it was > 100 µM (inactive); with NCI/ADR-RES it was 51.1 µM (inactive). Moreover, the GI50 in the test with OVCAR-8 was > 100 µM (inactive); in the test with RPMI-8226, 48.9 µM (inactive); in the test on RXF 393 it was > 100 µM (inactive); with SNB-75, 37.3 µM (inactive); in the test with T47D it was 79.3 µM (inactive); in the test on U-251, > 100 µM (inactive). In addition, the GI50 is 82.8 µM (inactive) in the test on UACC-257 and 37.6 µM (inactive) with UO-31.

As to `CCNC(=O)OCC1C2=C(C(=O)C(C)=C(N)C2=O)N2CC3C(N3C)C12OC` (stereo not given), the GI50 was 20.9 µM (inactive) in the test with A498; 5.11 µM (inactive) in the test on A549; 4.22 µM (inactive) in the test on ACHN; 4.1 µM (inactive) in the test on DU-145; 14.6 µM (inactive) in the test on HCT-116; 3.94 µM (inactive) with HL-60. Further, the GI50 in the test with HOP-62 is 6.44 µM (inactive); in the test with M14, 9.86 µM (inactive); in the test on MDA-MB-435 it was 75.7 µM (inactive); with MDA-N, > 88.5 µM (inactive); with Malme-3M it was 17.6 µM (inactive); with NCI/ADR-RES, > 75.5 µM (inactive). Besides, the GI50 in the test with OVCAR-8 is 21.7 µM (inactive); in the test on RPMI-8226, 14.4 µM (inactive); with RXF 393, 32.5 µM (inactive); in the test on SNB-75, 21.7 µM (inactive); in the test on T47D it was 55.2 µM (inactive); in the test with U-251, 23.8 µM (inactive). Moreover, the figures for the GI50 with UACC-257 and with UO-31 were 62.4 µM (inactive) and 19.5 µM (inactive), respectively.

Take `C=C1CC(c2ccc(OCCCN3C(=O)c4ccccc4C3=O)cc2)OC1=O` (stereo not given): the GI50 with A498 was 1.37 µM (inactive); in the test on A549, 16 µM (inactive); in the test with ACHN, 4.19 µM (inactive); with DU-145 it was 4.75 µM (inactive); in the test on HCT-116 it was 1.8 µM (inactive); with HL-60, 1.96 µM (inactive). Also, the GI50 with HOP-62 is 16.4 µM (inactive); with M14, 2.55 µM (inactive); with MDA-MB-435, 2.52 µM (inactive); in the test on MDA-N it was 2.79 µM (inactive); in the test on Malme-3M, 2.54 µM (inactive); with NCI/ADR-RES it was 8.09 µM (inactive). Besides, the GI50 in the test on OVCAR-8 was 2.71 µM (inactive); in the test with RPMI-8226 it was 1.12 µM (inactive); in the test on RXF 393 it was 1.99 µM (inactive); in the test with SNB-75 it was 10.6 µM (inactive); in the test with T47D, 2.92 µM (inactive); in the test with U-251 it was 4 µM (inactive). Besides, the GI50 in the test with UACC-257 is 2.19 µM (inactive); with UO-31, 3.74 µM (inactive).

`CC(C)c1cc(C(F)(F)F)nc(NNc2nc(C(C)C)cc(C(F)(F)F)n2)n1`: the GI50 was > 100 µM (inactive) with A498; 94 µM (inactive) with A549; 56.8 µM (inactive) with ACHN; > 100 µM (inactive) in the test with DU-145; 93.8 µM (inactive) with HCT-116; > 100 µM (inactive) in the test on HL-60. The GI50 in the test with HOP-62 was 13.2 µM (inactive); in the test with M14 it was 67.9 µM (inactive); in the test with MDA-MB-435, > 100 µM (inactive); in the test on MDA-N it was > 100 µM (inactive); in the test with Malme-3M it was 49 µM (inactive); in the test on NCI/ADR-RES, > 100 µM (inactive). In addition, the GI50 in the test with OVCAR-8 is > 100 µM (inactive); with RPMI-8226, > 100 µM (inactive); in the test on RXF 393, 32.4 µM (inactive); in the test with SNB-75, 24.2 µM (inactive); with T47D, > 100 µM (inactive); in the test with U-251, 45.8 µM (inactive). The GI50 in the test on UACC-257 is 15.9 µM (inactive); with UO-31 it was > 100 µM (inactive).

Regarding `CCO/C=N\C1=C(C#N)SC2=N/C(=C\c3ccco3)C(=O)N21`, the GI50 with A498, with A549, with ACHN, with DU-145, with HCT-116 and with HL-60 was > 100 µM (inactive) each time. The GI50 in the test with HOP-62, with M14, in the test with MDA-MB-435, in the test on MDA-N, in the test on Malme-3M and in the test on NCI/ADR-RES was > 100 µM (inactive) each time. Further, the GI50 in the test on OVCAR-8, in the test with RPMI-8226, in the test with RXF 393, with SNB-75, with T47D and with U-251 was > 100 µM (inactive) each time. The GI50 in the test with UACC-257 and in the test on UO-31 was > 100 µM (inactive) in each case.

As to `Cn1c2ccccc2c2c(-c3ccccc3)cc3c(c21)C(=O)C=CC3=O`, the GI50 with A498 was 2.23 µM (inactive); in the test on A549, > 10 µM (inactive); in the test on ACHN, 1.63 µM (inactive); with DU-145 it was 5.4 µM (inactive); in the test with HCT-116, 1.45 µM (inactive); in the test on HL-60, 0.361 µM (active). The GI50 was > 7.4 µM (inactive) in the test with HOP-62; 1.46 µM (inactive) in the test with M14; 1.92 µM (inactive) in the test with MDA-MB-435; 2.37 µM (inactive) in the test with MDA-N; 2.06 µM (inactive) in the test with Malme-3M; 3.33 µM (inactive) in the test on NCI/ADR-RES. Also, the GI50 with OVCAR-8 was 2.07 µM (inactive); in the test on RPMI-8226 it was 1.15 µM (inactive); in the test on RXF 393, 2.2 µM (inactive); with SNB-75, > 5.66 µM (inactive); in the test with T47D, 1.38 µM (inactive); in the test with U-251, 4.05 µM (inactive). Also, the GI50 was 2.11 µM (inactive) with UACC-257 and 1.61 µM (inactive) with UO-31.
